From patent US20170105969A1, “CENICRIVIROC FOR THE TREATMENT OF HIV-2 INFECTION” (Tobira Therapeutics, Inc., priority 2014, published 2017)
Entries after “also recorded” stand apart in the source; their conditions may differ. Marks after values point to notes of the source that are not given here.

Assays:
CCR2 = target: T1, CCR2 (Homo sapiens, UniProt P41597); assay: CCR2 receptor occupancy / internalization in PBMCs (monocytes) by flow cytometry; format: cell-based
T1 construct: endogenous in cells; host or cells: monocytes within PBMCs from 5 HIV+ and 5 HIV- subjects
T1 sequence (P41597 1-360 isoform P41597-2): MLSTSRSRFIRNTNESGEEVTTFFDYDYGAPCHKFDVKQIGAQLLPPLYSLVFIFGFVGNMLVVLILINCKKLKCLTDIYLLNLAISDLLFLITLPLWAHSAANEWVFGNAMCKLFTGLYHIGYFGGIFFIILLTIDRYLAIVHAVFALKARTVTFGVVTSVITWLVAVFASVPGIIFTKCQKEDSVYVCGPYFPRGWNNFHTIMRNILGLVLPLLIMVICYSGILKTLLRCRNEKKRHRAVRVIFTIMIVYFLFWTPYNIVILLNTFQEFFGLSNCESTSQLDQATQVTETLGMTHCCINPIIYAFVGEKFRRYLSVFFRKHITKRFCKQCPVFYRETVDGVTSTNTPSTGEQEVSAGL
Procedure: (§1) The capacity of each drug to inhibit CCR5 or CCR2 internalization was evaluated. Cell-surface expression of CCR5 and CCR2 was assessed by flow cytometry, and fluorescence values were converted into molecules of equivalent soluble fluorescence (MESF).

HIV-1 [1] = assay: Study 201: pharmacokinetic/pharmacodynamic relationships (Emax model); format: in vivo, human
Description: Drug response was characterized using the following maximum effect (Emax) model: […]

[2] = APRI and FIB-4 fibrosis scores, post-hoc analysis of Study 202; format: in vivo, human
Procedure: Change in score category from baseline (BL) to Weeks 24 and 48 was assessed in patients with non-missing data. Correlations between changes from BL in APRI and FIB-4 scores, and MCP-1 (CCR2 ligand) and sCD14 (inflammatory biomarker) levels were evaluated.

HIV-1 [3] = assay: Study 202: virologic response (plasma HIV-1 RNA <50 copies/mL), Snapshot algorithm, ITT; format: in vivo, human; details: Week 24
Description: The primary efficacy endpoint was the percentage of subjects with plasma HIV-1 RNA <50 copies/mL at Week 24 (using the FDA Snapshot algorithm and the ITT population).

[4] = tested on: RANTES-induced Ca2+ mobilization; assay: RANTES-induced Ca2+ mobilization; format: cell-based
CCR5 = CCR5 (Homo sapiens, UniProt P51681); assay: CCR5 receptor occupancy / internalization in PBMCs by flow cytometry; format: cell-based
Procedure: as §1

CCR5-tropic HIV-1 BaL = assay: PM-1 cells infected with HIV-1 BaL, supernatant P24 and viral load after 4 hours; format: cell-based; details: CVC 20 nM or MVC 50 nM
Procedure: Early (strong-stop) and late (full-length) reverse transcript levels were measured by qPCR. […] P24 and viral load levels were measured by ELISA and qRT-PCR after 4 hours.

HIV-2 clinical isolates = assay: HIV-2 phenotypic susceptibility, ANRS PBMC method; format: cell-based; details: for EC50: Human immunodeficiency virus 2, PBMC
Procedure: All patients were infected with HIV-2 group A. Tropism was determined phenotypically using Ghost(3) cell lines expressing CD4 receptor and one HIV coreceptor, CCR5 or CXCR4. Both Ghost(3) cell lines carries a humanized green fluorescent protein (GFP) gene, under the control of a HIV-2 LTR. […] Ghost(3) cells were provided by the NIH AIDS Reagent program.
Briefly, cell-free HIV-2 positive supernatant was serially diluted (1, 10^−1, and 10^−2) and incubated with PBMC for viral titration. Viruses were tested at a 100 TCID50 titration. Cells were pre-incubated with cenicriviroc or maraviroc at an appropriate concentration 1 hour before viral infection. Six serial dilutions of the antiretroviral drug were tested in quadruplicate. On day 4, viral replication was assessed by a specific viral load assay (Generic HIV-2 viral load, Biocentric, France).

[5] = HIV-2 isolate 10-046, group A, R5
[6] = HIV-2 isolate 10-051, group A, R5
[7] = HIV-2 isolate 10-055, group A, X4
[8] = HIV-2 isolate 10-056, group A, R5
[9] = HIV-2 isolate 10-069, group A, Dual
[10] = HIV-2 isolate 10-074, group A, R5

CCR5, sequence (P51681 whole entry): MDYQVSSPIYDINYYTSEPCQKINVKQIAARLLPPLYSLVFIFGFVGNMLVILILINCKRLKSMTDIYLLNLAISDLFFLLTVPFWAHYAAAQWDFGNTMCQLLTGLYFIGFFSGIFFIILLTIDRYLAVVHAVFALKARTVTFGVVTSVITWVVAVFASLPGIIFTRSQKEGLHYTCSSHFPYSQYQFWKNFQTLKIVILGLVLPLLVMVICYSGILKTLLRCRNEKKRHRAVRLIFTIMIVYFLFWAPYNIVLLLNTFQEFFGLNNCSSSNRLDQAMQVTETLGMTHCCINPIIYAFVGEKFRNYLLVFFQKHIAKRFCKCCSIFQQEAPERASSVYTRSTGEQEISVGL

CCCCOCCOc1ccc(-c2ccc3c(c2)/C=C(/C(=O)Nc2ccc([S@@+]([O-])Cc4cncn4CCC)cc2)CCCN3CC(C)C)cc1 [CVC, (S)-8-[4-(2-Butoxyethoxy)phenyl]-1-isobutyl-N-(4-{[(1-propyl-1H-imidazol-5-yl)methyl]sulfinyl}phenyl)-1,2,3,4-tetrahydro-1-benzazocine-5-carboxamide]
average concentration required to reach >80% receptor occupancy (CCR2; CCR2, monocytes): 1.8 nM | prevention of MCP-1-induced CCR2 internalization (in words) (CCR2; PBMCs): at lower concentrations than BMS-22 | CCR2 cell-surface expression (in words) (CCR2; in the absence of MCP-1, monocytes): induced CCR2 internalization and decreased cell-surface expression on monocytes; also recorded: reduced CCR2 expression on monocytes | concentration at which saturation of monocyte CCR2 was reached (CCR2; monocytes): 6 nM | receptor occupancy at 0.006 µM (CCR2; monocytes, at 6 nM (saturation)): ~98% | Emax in the PK/PD model (HIV-1 [1]; HIV-1 RNA, Study 201): −1.43 log10 copies/mL | Emax at 25 mg (HIV-1 [1]; Human immunodeficiency virus 1, 25 mg dose, read-out: percent of the maximum inhibitory effect at average Css (Emax model)): 54.9% | Emax at 50 mg (HIV-1 [1]; Human immunodeficiency virus 1, 50 mg dose, read-out: percent of the maximum inhibitory effect at average Css (Emax model)): 79.8% | Emax at 75 mg (HIV-1 [1]; Human immunodeficiency virus 1, 75 mg dose, read-out: percent of the maximum inhibitory effect at average Css (Emax model)): 85.9% | Emax at 150 mg (HIV-1 [1]; Human immunodeficiency virus 1, 150 mg dose, read-out: percent of the maximum inhibitory effect at average Css (Emax model)): 95.9% | patients in APRI category 0.5-1.5 ([2]; Baseline): 14% | patients in APRI category <0.5 ([2]; Baseline): 84% | patients in APRI category >1.5 ([2]; Baseline): 2% | patients in FIB-4 category 1.45-3.25 ([2]; Baseline): 17% | patients in FIB-4 category <1.45 ([2]; Baseline): 82% | patients in FIB-4 category >3.25 ([2]; Baseline): 1% | APRI: Decreased 1 category from baseline ([2]; Week 24): 14% | FIB-4: Decreased 1 category from baseline ([2]; Week 24): 13% | patients in APRI category 0.5-1.5 ([2]; Week 24): 7% | patients in APRI category <0.5 ([2]; Week 24): 93% | patients in FIB-4 category 1.45-3.25 ([2]; Week 24): 7% | patients in FIB-4 category <1.45 ([2]; Week 24): 93% | APRI: Decreased 1 category from baseline ([2]; Week 48): 10% | FIB-4: Decreased 1 category from baseline ([2]; Week 48): 14% | patients in APRI category 0.5-1.5 ([2]; Week 48): 8% | patients in APRI category <0.5 ([2]; Week 48): 91% | patients in APRI category >1.5 ([2]; Week 48): 1% | patients in FIB-4 category 1.45-3.25 ([2]; Week 48): 5% | patients in FIB-4 category <1.45 ([2]; Week 48): 94% | patients in FIB-4 category >3.25 ([2]; Week 48): 1% | virologic non-response, subgroup with high baseline viral load (≧100,000 copies/mL) (HIV-1 [3]; CVC 100 mg): 20% | HIV-1 RNA ≧400 copies/mL (HIV-1 [3]; CVC 100 mg arm): (7%) | Treatment difference from EFV arm (HIV-1 [3]; CVC 100 mg arm): 5% | virologic non-response, subgroup with high baseline viral load (≧100,000 copies/mL) (HIV-1 [3]; CVC 200 mg): 29% | Discontinued study due to AE or death (HIV-1 [3]; CVC 200 mg arm): (2%) | HIV-1 RNA ≧50 but <400 copies/mL (HIV-1 [3]; CVC 200 mg arm): (7%)^e | Treatment difference from EFV arm (HIV-1 [3]; CVC 200 mg arm): 4% | RANTES-induced Ca2+ mobilization (in words) [4]: blocked | effective concentration at which saturation of CCR5 was reached (CCR5; CD4+ T cells): 3.1 nM | concentration achieving ≧90% receptor occupancy for CCR5 (CCR5; CD4+ T-cells ex vivo in humans): 3.1 nM | effective concentration at which saturation of CCR5 was reached (CCR5; CD8+ T cells): 2.3 nM | concentration achieving ≧90% receptor occupancy for CCR5 (CCR5; CD8+ T-cells ex vivo in humans): 2.3 nM | prevention of RANTES-induced CCR5 internalization (in words) (CCR5; PBMCs): at lower effective concentrations than MVC | cell-surface expression of CCR5 (in words) (CCR5; in the absence of RANTES, PBMCs): increased cell-surface expression of CCR5 | supernatant P24 (CCR5-tropic HIV-1 BaL; 0 hrs (baseline)): 506 ng/mL | viral load (CCR5-tropic HIV-1 BaL; 0 hrs): 1.19×10^10 copies/ml | supernatant P24 (CCR5-tropic HIV-1 BaL; 4 hrs): 192 ng/mL | viral load (CCR5-tropic HIV-1 BaL; 4 hrs): 1.26×10^10 copies/ml | MPI (%) (HIV-2 clinical isolates; [5]): 94% | MPI (%) (HIV-2 clinical isolates; [6]): 93% | MPI (%) (HIV-2 clinical isolates; [7]): 4% | MPI (%) (HIV-2 clinical isolates; [8]): 94% | MPI (%) (HIV-2 clinical isolates; [9]): 33% | MPI (%) (HIV-2 clinical isolates; [10]): 98% | EC50 (HIV-2 clinical isolates; [5]): 0.03 nM | EC50 (HIV-2 clinical isolates; [6]): 0.45 nM | EC50 (HIV-2 clinical isolates; [7]): > 1000 nM | EC50 (HIV-2 clinical isolates; [8]): 0.33 nM | EC50 (HIV-2 clinical isolates; [9]): > 1000 nM | EC50 (HIV-2 clinical isolates; [10]): 0.98 nM
